Laboratory results as given in PubChem BioAssay (NCI).
“And” between values parts separate entries of the source, which are not always exact repeats. Equal values may be shown once.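 1) Cells in 96-well plates. 2) Compound, 48 h, 5 concentrations. 3) Linear interpolation between surrounding doses. 4) Unreached endpoint = highest concentration. GI50 marks 50% less growth. TGI: total growth inhibition.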

Tests used:
Test in all cases: NCI anticancer screen, dose series, 48 h
TK-10 renal = test system: TK-10 renal
EKVX NSCLC = test system: EKVX NSCLC
IGROV1 ovarian = test system: IGROV1 ovarian
MALME-3M melanoma = test system: MALME-3M melanoma
UO-31 renal = test system: UO-31 renal
K-562 leukemia = test system: K-562 leukemia
KM12 colon = test system: KM12 colon
SK-MEL-5 melanoma = test system: SK-MEL-5 melanoma
SK-OV-3 ovarian = test system: SK-OV-3 ovarian
SK-MEL-28 melanoma = test system: SK-MEL-28 melanoma

SMILES | GI50 (TK-10 renal) | TGI (TK-10 renal) | GI50 (EKVX NSCLC) [µM] | TGI (EKVX NSCLC) [µM] | GI50 (IGROV1 ovarian) | TGI (IGROV1 ovarian) [µM] | GI50 (MALME-3M melanoma) [µM] | TGI (MALME-3M melanoma) [µM] | GI50 (UO-31 renal) | TGI (UO-31 renal) [µM] | GI50 (K-562 leukemia) [µM] | TGI (K-562 leukemia) [µM] | GI50 (KM12 colon) | TGI (KM12 colon) [µM] | GI50 (SK-MEL-5 melanoma) [µM] | TGI (SK-MEL-5 melanoma) [µM] | GI50 (SK-OV-3 ovarian) [µM] | TGI (SK-OV-3 ovarian) [µM] | GI50 (SK-MEL-28 melanoma) [µM] | TGI (SK-MEL-28 melanoma) [µM]
C=C(CN1CCN(c2cccc(F)c2)CC1)c1ccc(C(=O)Nc2ccccc2N)cc1 | 5.95 µM | > 100 µM | 6.68 | > 100 | 0.333 µM | 3.9 | 1.83 | 68 | 1.31 µM | 10.2 | 0.706 | 13.4 | 1.38 µM | 50.1 | 1.91 | 17.2 | 5.31 | > 100 | 0.676 | 38.6
CC(Oc1ccc2cc(C(=O)c3ccccc3)c(=O)oc2c1)C(=O)O (configuration not stated) |  | > 100 µM |  | > 100 |  | > 100 |  | > 100 |  | > 100 |  | > 100 |  | > 100 |  | > 100 |  | > 100 |  | > 100
CCC(/C(=N\Nc1c(Cl)cc(Cl)cc1Cl)c1ccccc1)n1ccnc1C (configuration not stated) |  | 28.2 µM |  | 35.9 |  | 28.8 |  | 24.8 |  | 20.1 |  | 51.6 |  | 26.8 |  | 21.2 |  | 32.3 |  | 29.7
COc1cc2c3c(c4c5ccccc5[nH]c4c2c(OC)c1OC)C(=O)N(CCN1CCCCC1)C3=O | 1.3 µM | 2.72 µM | 1.5 | 3.42 | 0.661 µM | 2.22 | 1.36 | 2.85 | 1.03 µM | 2.32 | 0.71 |  | 1.02 µM | 2.59 | 1.88 | 5.31 | 1.18 | 2.53 | 1.74 | 3.32
CCN(CC)CC(O)C1CCC(c2ccccc2)CC1 (configuration not stated) |  | 31.2 µM |  | > 100 |  | > 100 |  | 32.3 |  | 32.3 |  | > 100 |  | 71.3 |  | 30.4 |  | 36.6 |  | 48.9
Cn1c(=S)sc2nc3ccccc3n2c1=S |  | 55.4 µM |  | 44.6 |  | 30.9 |  | 31.2 |  | 18.8 |  | 21.5 |  | 27.4 |  | 27 |  | 36.5 |  | 25.1
COc1ccc(CC2C3=C(CCCC3)CCN2C)cc1 (configuration not stated) |  | > 100 µM |  | > 100 |  | > 100 |  | > 100 |  | > 100 |  | > 100 |  | > 100 |  | > 100 |  | > 100 |  | > 100
NC[C@@](O)(c1ccc(Cl)cc1)c1ccc(-c2cn[nH]c2)cc1 | 0.083 µM and 0.268 µM | 0.875 µM and 1.54 µM | 0.556 | > 10 | 0.43 µM and 0.272 µM | 1.46 | 1.57 | 3.08 | 0.583 µM and 0.747 µM |  | 1.69 | 3.53 | 3.44 µM and 3.48 µM | > 100 |  | > 100 | 2.23 | > 10 | 3.97 | > 10
